92 compounds from PubChem BioAssay AID624491 (Broad Institute, 2012) can be followed below.

The subject of the experiment is D54 ERlucT glycosylation luciferase reporter, luminescence, 24 h. Description: N-linked glycosylation inhibitors, luciferase reporter, dose response, D54 ERlucT cells, luminescence, cherry-picks (AID 624491).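 Further: signal gain reflects blocked N-linked glycosylation of a luciferase reporter; actives raise luciferase signal so AC26 marks activators of the reporter.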 For orientation: A reporter such as luciferase makes a cellular process visible.

Consider `CC[C@H](C)C(=O)O[C@H]1CCC=C2C=C[C@H](C)[C@H](CC[C@@H]3C[C@@H](O)CC(=O)O3)[C@H]21`, for which the AC26 is 180 nM.
For `CCN(CC)CCOc1c(Br)ccc2c1sc1nc3n(c(=O)c12)CCC3`, the AC26 was 3070 nM.
In the case of `CCOc1ccc(Nc2c3ccccc3nc3ccccc23)cc1`, the AC26 was 365 nM.
The figure for `COc1cccc(/C=N/NC(=O)c2ccc(N3CCCC3=O)cc2)c1` is 3350 nM; for `Cc1ccc(C(=O)N/C(=C\c2cccs2)C(=O)NCCc2c[nH]c3ccccc23)cc1` it is 378 nM.
On to `Cc1noc(C)c1-c1ccc(C(=O)NCCc2ccccc2)c2occc12`, for which the AC26 was 4410 nM.
For the compound `CCC(Cc1ccccc1)NC(=O)c1ccc2nc(N3CCOCC3)sc2c1` (configuration not stated), the AC26 was 1250 nM.
Regarding `CCOc1cc(N2CCOCC2)c(OCC)cc1NC(=O)c1[nH]c(C)c(C(C)=O)c1C`, the AC26 is 1620 nM.
Turning to `CN(C)Cc1c(C(=O)N/N=C/c2ccccc2OCc2c(F)cccc2Cl)nnn1-c1nonc1N`, the AC26 was 4210 nM.
For the compound `Cc1ccc(S(=O)(=O)Nc2ccc3c(c2)n(C)c(=O)n3C)cc1`, the AC26 was 1460 nM.
Take `CN(C)CCN1C(=O)c2cccc3cc([N+](=O)[O-])cc(c23)C1=O`: the AC26 was 73.5 nM.
Turning to `CC(=O)c1sc(Nc2cccc3ccccc23)nc1C`, the AC26 is 6110 nM.
Turning to `Cc1ccc(C)c(OCC(O)CN2CCN(CCN3C(=O)c4cccc5cccc(c45)C3=O)CC2)c1` (configuration not stated), the AC26 was 755 nM.
`Cc1cc(-n2c(SCC(=O)NCCC3=CCCCC3)nc3n[nH]c(C)c3c2=N)ccc1Cl`: the AC26 was 4030 nM.
For the compound `CNc1ccc(Br)cc(C(=O)/C=C/c2cccc(OC)c2OC)c1=O`, the AC26 was 2220 nM.
The same measure for `CCn1c(SCC(=O)N/N=C/c2ccc(C)s2)nc2ccccc21`: 2200 nM; for `COc1ccc(C(=O)c2ccc(N(C)C)cc2)c2ccccc12`: 2000 nM; for `CCOC(=O)c1c(NC(C)=O)sc2c(OCCN(CC)CC)c(Br)ccc12`: 2690 nM.
As to `O=C(/C=C/Sc1ccccc1)c1ccc(Cl)cc1`, the AC26 is 727 nM.
As for `COc1ccc(CC(=O)NCc2ccc(-n3cccc3)cc2)cc1OC`, the AC26 was 825 nM.
Turning to `O=C(CCl)Nc1ccc(Sc2ccc(NC(=O)CCl)cc2)cc1`, the AC26 is 667 nM.
Consider `CCC(CC)Nc1ccc(C(CC(N)=O)NC(=O)Cc2ccc(Br)cc2)cc1[N+](=O)[O-]` (configuration not stated), for which the AC26 is 4130 nM.
The figure for `CCN(c1cccc(C)c1)S(=O)(=O)c1ccc(-c2cc(C)no2)s1` is 1270 nM; for `COc1ccc2c(c1)CCc1c(C(=O)Nc3cc(C)n(Cc4ccc(Cl)cc4)n3)noc1-2` it is 3370 nM; for `CCn1c(=S)[nH]c2cc(S(=O)(=O)N3CCCCC3)ccc21` it is 1090 nM.
The same measure for `COc1ccc(/C=N/NC(=O)c2cccnc2)cc1COc1ccc(NC(C)=O)cc1`: 1990 nM; for `COC(=O)Nc1nc(-c2ccccc2)c(C(=O)c2ccc(Cl)cc2)s1`: 3.16 nM; for `Cc1nnc2c3ccccc3c(-c3cccs3)nn12`: 3170 nM.
With `COc1ccc(C2C(C(=O)Nc3cc(OC)c(OC)c(OC)c3)c3ccccc3C(=O)N2C)cc1` (configuration not stated), the AC26 is 5180 nM.
The figure for `Cn1cnc([N+](=O)[O-])c1Sc1nc2ccccc2[nH]1` is 797 nM.
The same measure for `Cc1cc(C)nc(N2Cc3ccccc3C2=N)n1`: 4560 nM.
The same measure for `CCNCCNc1ccc([N+](=O)[O-])c2cccnc12`: 7750 nM; for `CCN1C(=O)c2cccc3c(S(=O)(=O)Nc4ccccn4)ccc1c23`: 2870 nM.
`CC[C@]12c3[nH]c4cc(CCC(=O)N(C)C)ccc4c3CCN1C(=O)[C@@H](CC(=O)NC/C=C(\C)CCC=C(C)C)C[C@@H]2C(=O)N1CCN(C(=O)c2ccco2)CC1`: the AC26 was 2860 nM.
Consider `Cc1cc2nnc(SCC(=O)NCc3cccs3)n2c2ccccc12`, for which the AC26 was 1660 nM.
As to `CCn1c2ccccc2c2cc(NC(=O)COC(=O)Cc3cn4ccsc4n3)ccc21`, the AC26 is 1790 nM.
On to `COc1ccc2nc(C)cc(Nc3ccc(N4CCN(C)CC4)cc3)c2c1`, for which the AC26 was 694 nM.
The same measure for `O=C(/C=C/c1cccc([N+](=O)[O-])c1)c1ccc2c(c1)OCCO2`: 3330 nM; for `Oc1ccc(C2=NNC(=NCc3ccc4c(c3)OCO4)SC2)c(O)c1`: 4890 nM; for `NS(=O)(=O)c1ccc(NC(=O)c2cccc3cc4ccccc4nc23)cc1`: 1320 nM.
For `O=C(Nc1c2ccccc2nc2ccccc12)C(Cl)(Cl)Cl`, the AC26 was 3340 nM.
For the compound `COc1ccc2noc3c2c1C(=O)c1ccccc1-3`, the AC26 was 441 nM.
In the case of `COc1ccc(-c2cc(-c3ccc(O)cc3)nc(N)c2C#N)cc1OC`, the AC26 was 4050 nM.
As for `COc1ccc2c(c1)[C@H]1[C@H](CO2)[C@H](c2ccccc2)[C@]2(C)C(=O)Nc3ccc(Cl)cc3C(=O)N12`, the AC26 was 426 nM.
As to `O=S(=O)([N-]c1nc2ccccc2nc1-n1cc[n+](Cc2ccccc2)c1)c1ccccc1`, the AC26 is 520 nM.
On to `COc1cc2c(cc1OC)CN(c1ccc(-c3ccccc3OC)nn1)CC2`, for which the AC26 was 3380 nM.
Regarding `O=C(C=Cc1ccccc1O)c1ccccc1O`, the AC26 was 2850 nM.
With `COc1ccc(CCn2c(=N)c(C(=O)NCc3ccco3)cc3c(=O)n4ccccc4nc32)cc1OC`, the AC26 was 6410 nM.
In the case of `OC1CCCN(Cc2c3ccccc3cc3ccccc23)C1` (configuration not stated), the AC26 was 8750 nM.
For `COCCCNC(=O)Cc1c(C)c2c(cc(C)c3c(C(C)(C)C)coc32)oc1=O`, the AC26 is 1510 nM.
In the case of `Nc1ccc2nc(-c3ccccc3)c(-c3ccccc3)nc2c1`, the AC26 is 1480 nM.
Consider `Cc1cccc([C@@H]2[C@@H]3C(=O)N(Cc4ccccc4)C(=O)[C@@H]3[C@]3(Cc4ccccc4)C(=O)N(c4cccc(F)c4)C(=O)N23)c1`, for which the AC26 is 11400 nM.
As for `Cc1cc(=O)n2c3c(c4c(cc13)c(CN(C)C)cc(=O)n4C)OC2`, the AC26 is 3030 nM.
As for `CCOC(=O)C(C)Oc1cccc2c(=O)n(CC(=O)NCc3ccc(F)cc3)ccc12` (configuration not stated), the AC26 is 1720 nM.
As for `COc1ccccc1N1CCN(c2ccc3c(c2)S(=O)(=O)c2cccc(C(=O)NCC4CC4)c2C3=O)CC1`, the AC26 was 4550 nM.
As to `COc1ccc(NC(=O)C2Cc3c(-c4cccc(NC(C)=O)c4)ccnc3O2)cc1` (configuration not stated), the AC26 is 1560 nM.
As for `Cc1ccc(C(c2cc(Cl)c3cccnc3c2O)N2CCN(C)CC2)cc1` (configuration not stated), the AC26 is 1280 nM.
Regarding `Cc1ccc(S(=O)(=O)NC2=C(N3CCN(Cc4ccccc4)CC3)C(=O)c3ccccc3C2=O)cc1`, the AC26 is 3810 nM.
Turning to `COc1ccccc1-n1cnc2cc(NCc3cccs3)ccc21`, the AC26 is 141 nM.
Regarding `O=C1CCCC2=C1C(c1ccco1)Nc1ccc(C(=O)c3ccccc3)cc1N2` (configuration not stated), the AC26 is 16500 nM.
With `COc1ccc(-c2[nH]nc(-c3ccccc3)c2-c2nc3ccccc3[nH]2)cc1`, the AC26 is 3900 nM.
The same measure for `Cn1nc(C(=O)Nc2cccc(S(=O)(=O)N3CCCCC3)c2)c2ccccc2c1=O`: 284 nM; for `COc1cccc(-c2nn(C)c3sc(C(=O)NCc4ccco4)cc23)c1`: 3620 nM.
Regarding `Nc1nc(=S)c2ncn([C@@H]3O[C@H](CO)[C@@H](O)[C@H]3O)c2[nH]1`, the AC26 was 368 nM.
Take `O=C(C=Cc1ccccc1F)c1ccccc1`: the AC26 was 3230 nM.
The same measure for `COc1ccc(Nc2nc(C)nc3sc4c(c23)CCC4)cc1O`: 11400 nM; for `O=C(NCc1ccco1)c1nn2c(C(F)(F)F)cc(-c3cccs3)nc2c1Br`: 3250 nM.
`Cc1ccc(NCCN(C)C)c2c(=O)c3cc(O)ccc3sc12`: the AC26 is 84.5 nM.
For the compound `c1ccc2cc3c(NCCN4CCOCC4)ccnc3cc2c1`, the AC26 was 515 nM.
For the compound `COc1ccc2c(c1)OC[C@H]1[C@H]2N2C(=O)c3cc(OC)ccc3NC(=O)[C@@]2(C)[C@H]1c1ccccc1`, the AC26 was 1360 nM.
As for `CS(=O)(=O)c1cccc(C(=O)Nc2ccc(-c3nc4ccccc4[nH]3)cc2)c1`, the AC26 is 3070 nM.
Turning to `COc1ccccc1-c1nnc2sc(-c3cc4ccccc4o3)nn12`, the AC26 was 63.7 nM.
The same measure for `Cc1ccc2c(c1)c1ccc3c(c1n2C)C(=O)C=CC3=O`: 948 nM; for `Cc1ccc(S(=O)(=O)Cc2ccc(C(=O)N3CCN(c4cccc(C)c4C)CC3)o2)cc1`: 3450 nM.
Take `Cn1c(=O)n(C)c2cc(NS(=O)(=O)c3ccc(C(C)(C)C)cc3)ccc21`: the AC26 is 9340 nM.
Take `Cc1ccc(C(=O)c2coc3c2C(=O)C(=O)c2ccccc2-3)cc1`: the AC26 is 4630 nM.
Take `O=C(c1ccc2ncsc2c1)N1CCN(c2cccc(C(F)(F)F)c2)CC1`: the AC26 was 4190 nM.
As for `COC(=O)c1ccc(S(=O)(=O)N2CCc3ccccc32)cc1`, the AC26 is 10600 nM.
Turning to `O=C(NC1CCCCCC1)c1c2c(nc3ccccc13)CCN(Cc1ccccc1)C2`, the AC26 was 5800 nM.
On to `Cc1ccc(C)n1-c1cccc(NC(=O)c2ccccc2)c1`, for which the AC26 is 8830 nM.
With `Cc1ccc(S(=O)(=O)N(C)C[C@@H]2Oc3ccc(NC(=O)CCC(F)(F)F)cc3CC(=O)N([C@@H](C)CO)C[C@@H]2C)cc1`, the AC26 is 1470 nM.
The figure for `COc1ccc2c(c1)[C@H]1[C@H](CO2)[C@H](c2ccccc2)[C@]2(C)C(=O)Nc3ccc(Br)cc3C(=O)N12` is 188 nM; for `CN(C)CCNc1cccc2sc3ccc(O)cc3c(=O)c12` it is 500 nM.
On to `C[C@H](CO)N1C[C@H](C)[C@@H](CN(C)S(=O)(=O)c2cccs2)Oc2c(NC(=O)Cc3ccccc3)cccc2C1=O`, for which the AC26 was 2250 nM.
`NC(=O)CC(NC(=O)Cc1ccc(Br)cc1)c1ccc(NCC2CC2)c([N+](=O)[O-])c1` (configuration not stated): the AC26 was 6670 nM.
Take `Cn1nc(C(F)(F)F)c(/C=N/OC(=O)c2ccccc2Cl)c1SCc1ccccc1Cl`: the AC26 is 817 nM.
The figure for `COC1C(O)C(C)OC(OC2C(Oc3cccc4c(O)c5c(=O)oc6ccc(C)c7c(=O)oc(c34)c5c67)OC(C)C(O)C2O)C1O` (configuration not stated) is 1000 nM; for `C[C@@H](NC(=O)c1nc[nH]c1C(=O)N1CCN(c2ccccc2)CC1)c1ccccc1` it is 2110 nM.
Regarding `O=C1N[C@H]2CC=C[C@H]2N(Cc2cccs2)c2ccccc21`, the AC26 is 895 nM.
With `CC(=O)OC12COC1CC(O)C1(C)C(=O)C(O)C3=C(C)C(O)CC(O)(C(OC(=O)c4ccccc4)C21)C3(C)C` (configuration not stated), the AC26 was 1120 nM.
With `CCN(CC)CCN1C(=O)c2cccc3cc(N)cc(c23)C1=O`, the AC26 was 1140 nM.
`Cc1ccc2c(c1)[C@H]1[C@H](CO2)[C@H](c2ccccc2)[C@]2(C)C(=O)Nc3ccc(Br)cc3C(=O)N12`: the AC26 was 1430 nM.
